US9234005B2 (priority 2011, dated 2016)
Read-outs that look alike come from different tables or passages of the source. No end group written: not given here.

What was measured:
[1] = system: neuroblastoma cell line SK-N-SH; details: cited from earlier work
PTPN4-PDZ [2] = target: T1, PTPN4-PDZ (Homo sapiens, UniProt P29074, S499G); test: biochemical; type: binding; parameters: PTPN4-PDZ (residues G499-N604, G499 being a non-native residue due to the TEV cleavage site); GST (N, cleaved yes); made in house; host or cells: Escherichia coli BL21 (DE3) star
T1 sequence (P29074 499-604 S499G): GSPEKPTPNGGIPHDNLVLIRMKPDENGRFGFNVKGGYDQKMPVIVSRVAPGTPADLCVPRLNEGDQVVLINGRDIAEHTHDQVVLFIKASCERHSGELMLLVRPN

U373MG astrocytoma cells = type: cell-based, human
PTPN4-PDZ [3] = target: T1, PTPN4-PDZ; test: biochemical
[4] = Kd for PTPN4-PDZ (dissociation constant, text)

Row | Substance | Kd (PTPN4-PDZ [2]; Kd, affinity for PTPN4-PDZ) [µM] | cell death (% of dead cells among peptide loaded cells) (U373MG astrocytoma cells) | Kd (PTPN4-PDZ [3]) [µM] | further results
1 | SWESHKSGGETRL [Cyto13-att, SWESHKSGGETRL] | 157 | more than 14% | – | induction of cell death, in words [1]: induces cell death
2 | SWESYRSGGEIRL [EIRL-13, SWESYRSGGEIRL] | 1170 | – | – | interaction with PTPN4-PDZ, in words (PTPN4-PDZ [2]): low affinity
3 | SWARVSKETPL [SEQ ID NO: 4, SWARVSKETPL] | 1.58 | – | – | –
4 | SWELYKSEGDARL [DARL-13, SWELYKSEGDARL] | 1280 | – | – | –
5 | SWEDRETEV [SEQ ID NO: 7, SWEDRETEV] | – | – | 3.88 | –
6 | SWESHKSGG [Cyto9-Δ] | – | 7% | – | induction of cell death, in words [1]: do not; interaction with PTPN4-PDZ, in words (PTPN4-PDZ [2]): does not interact with PTPN4-PDZ
7 | SNRRVYKKMPSIESDV-OH [GluN2A-16, SNRRVYKKMPSIESDV] | – | 29% | – | Kd (PTPN4-PDZ [2]): 42 µM; fold increase in affinity for PTPN4-PDZ compared to Cyto13-att (Cyto-att) (PTPN4-PDZ [2]): four-fold increase; increase of cell death compared to Cyto13-att (U373MG astrocytoma cells): two-fold increase
8 | SWEERETEF [SEQ ID NO: 6, SWEERETEF] | – | – | 2.52 | –
9 | LNLGNDPDRGTSI [GluD2-13, LNLGNDPDRGTSI] | – | – | – | Kd (PTPN4-PDZ [2]; [4]): 128 µM
10 | shepherdin | – | – | – | glioblastoma death, in words (U373MG astrocytoma cells): in a range similar to those obtained with Cyto13-att
11 | SWERRETEV [SEQ ID NO: 5, SWERRETEV] | – | – | 2 | –
12 | SWEERETEV [SEQ ID NO: 3, SWEERETEV] | – | – | 1.35 | –
13 | SWESHKSGGQTRL [Cyto13-vir, SWESHKSGGQTRL] | 568 | 8% | – | induction of cell death, in words [1]: do not; fold difference in Kd, Cyto13-vir versus Cyto13-att (PTPN4-PDZ [2]): 4 fold; ΔΔG0=RT ln(Kd(Cyto13-vir)/Kd(Cyto13-att)) (PTPN4-PDZ [2]): 0.76 kcal·mol^−1; Kd (PTPN4-PDZ [2]; [4]): 560 µM
